The values that follow come from ChEMBL document CHEMBL1157528, “Mixed tetraoxanes containing the acetone subunit as antimalarials” (Bioorg Med Chem, 2008).

What is called GI50 is the concentration giving 50% growth inhibition. Low readings indicate more potent growth inhibition, high ones less potent growth inhibition. As a reminder, the LC50 is the concentration that kills 50% of the test population. In general, TGI refers to the concentration at which net growth stops. High values mean lower sensitivity of the cells, low ones greater sensitivity of the cells. As a reminder, the half-life is the time in which the quantity being followed falls by half. As usually defined, the IC50 is the point on the concentration scale where inhibition reaches its midpoint. Low values mean inhibition by little substance, high ones a need for much substance. As usually defined, the IC90 is the concentration at which the effect reaches the 90% level. High values mean weaker potency, low ones greater potency.

Activity calls are given as the source filed them. The calls are words filed in the database; no cut-off is given here. Some results are limits rather than exact numbers.

Data set [1] in a line: Cytotoxicity against human NCI60 cells. Format: functional.
The nature of data set [2]: Metabolic stability in human liver microsomes assessed as half life at 10 uM. It is filed as ADME, Microsome. A general note: Liver microsomes are vesicles of endoplasmic reticulum, rich in cytochrome P450 enzymes.
Data set [3] can be described thus: Metabolic stability in mouse liver microsomes assessed as half life at 10 uM. It is filed as ADME, Microsome.
Data set [4] concerns Plasmodium falciparum. The experiment in a line: microbe, parasite or virus in culture. To be noted: RCS.
Description: Antimalarial activity against chloroquine-resistant, mefloquine-sensitive Plasmodium falciparum RCS
Data set [5] deals with Plasmodium falciparum. The experiment in a line: microbe, parasite or virus in culture. To be noted: TM91C235.
Description: Antimalarial activity against mefloquine, chloroquine and quinine-resistant Plasmodium falciparum TM91C235
The subject of data set [6] is Plasmodium falciparum. Nature of the data set: microbe, parasite or virus in culture. To be noted: D6.
Description: Antimalarial activity against chloroquine and pyrimethamine-sensitive Plasmodium falciparum D6
Data set [7] deals with Plasmodium falciparum. The experiment in a line: microbe, parasite or virus in culture. Conditions: W2.
Description: Antimalarial activity against chloroquine and pyrimethamine-resistant Plasmodium falciparum W2
Data set [8] deals with Plasmodium berghei. The experiment in a line: Antimalarial activity as parasite-free survivors at day 31 of Plasmodium berghei KBG173 infected CD1 mice (Mus musculus) at 320 mg/kg/day peroral dose. Format: functional, organism-based.
Data set [9] concerns Plasmodium berghei. The experiment in a line: Antimalarial activity as parasite-free survivors at day 31 of Plasmodium berghei KBG173 infected CD1 mice (Mus musculus) at 20 mg/kg/day peroral dose. It is filed as functional, organism-based.
Data set [10] deals with Plasmodium berghei. Nature of the data set: Antimalarial activity as survival time in Plasmodium berghei KBG173 infected CD1 mice (Mus musculus) at 320 mg/kg/day peroral dose. Format: functional. To be noted: route oral.
The test system of data set [11] is Plasmodium berghei. The experiment in a line: Antimalarial activity as survival time against Plasmodium berghei KBG173 infected CD1 mice (Mus musculus) at 80 mg/kg/day peroral dose 3 - 5 days post infection. It is filed as functional. To be noted: route oral.
The test system of data set [12] is Plasmodium berghei. Nature of the data set: Antimalarial activity as survival time in Plasmodium berghei KBG173 infected CD1 mice (Mus musculus) at 20 mg/kg/day peroral dose. It is filed as functional. Conditions: route oral.
Data set [13] concerns A498. The experiment in a line: Antiproliferative activity against human A498 cells. It is filed as functional.
In data set [14] the test system is Plasmodium falciparum. The experiment in a line: Relative activity against Plasmodium falciparum W2 as ratio of IC90 to IC50. Format: functional.
In data set [15] the test system is Plasmodium falciparum. The experiment in a line: Relative activity against Plasmodium falciparum TM91C235 as fold-lower IC90/IC50 ratio relative to mefloquine.

Turning to `CNC(=O)CC[C@@H](C)[C@H]1CC[C@H]2[C@@H]3[C@H](OC(C)=O)C[C@@H]4CC5(CC[C@]4(C)[C@H]3C[C@H](OC(C)=O)[C@]12C)OOC(C)(C)OO5`, the GI50 in data set [1] worked out at 4470 nM. Moreover, in data set [1], the LC50 was 47900 nM. In [1], this compound yielded a TGI of 18200 nM. Also, the half-life at 10 µM in data set [2] and in data set [3] was more than 60 min throughout. For the same compound, the IC50 in data set [4] was 11.6 nM; in [5], 31.3 nM; in data set [6] it was 46.9 nM; in [7] it was 18.1 nM. The IC90 in data set [4] amounted to 22.3 nM; in data set [5], 74.8 nM; in [6], 78.3 nM; in data set [7], 20.7 nM.
In the case of `CC(=O)O[C@H]1C[C@H]2[C@@H]([C@H](OC(C)=O)C[C@@H]3CC4(CC[C@@]32C)OOC(C)(C)OO4)[C@@H]2CC[C@H]([C@H](C)CCC(=O)O)[C@@]12C`, the GI50 in [1] stood at 15500 nM. The compound further gave an LC50 in data set [1] of 75900 nM. Also, the TGI in data set [1] came out at 37200 nM. The half-life at 10 µM in data set [2] and in data set [3] was more than 60 min throughout. Also, the result in data set [8] and in data set [9] was inactive. The results for the Survival in [10], in data set [11] and in data set [12] were 17 days, 15 days and 10 days, respectively. The values for the IC50 in data set [5], in data set [6] and in [7] were 60.4 nM, 46.5 nM and 36 nM, respectively. In addition, the IC90 in data set [5] worked out at 231 nM; in [6], 96.3 nM; in data set [7], 94.7 nM.
On to `C[C@H](CCC(N)=O)[C@H]1CC[C@H]2[C@@H]3[C@H](O)C[C@@H]4CC5(CC[C@]4(C)[C@H]3C[C@H](O)[C@]12C)OOC(C)(C)OO5`, for which the GI50 stood at 980 nM in data set [1] and 92 nM in [13]. The same compound returned an LC50 in data set [1] of 11200 nM. Also, the TGI in data set [1] is 3800 nM; in data set [13], 710 nM. The CC50 in data set [13] (read-out: LC50 (the source's name)) is 11500 nM. Also, the half-life at 10 µM in data set [2] and in data set [3] was more than 60 min each time. Also, the IC50 in [4] came out at 38.7 nM; in data set [5], 228 nM; in data set [6], 215 nM; in [7], 153 nM. The IC90 was determined as 168 nM in data set [4], 498 nM in [5], 347 nM in data set [6] and 234 nM in [7].
For the compound `COC(=O)CNC(=O)CC[C@@H](C)[C@H]1CC[C@H]2[C@@H]3[C@H](OC(C)=O)C[C@@H]4CC5(CC[C@]4(C)[C@H]3C[C@H](OC(C)=O)[C@]12C)OOC(C)(C)OO5`, in data set [1], halving of growth (GI50) required 8510 nM, the LC50 was 77600 nM and the TGI came out at 33900 nM. Besides, the half-life at 10 µM in [2] was determined as 70 min. Also, the half-life at 10 µM in data set [3] was 32 min. The IC50 in [6] amounted to 14.3 nM. For the same compound, 5.98 nM corresponded to half-maximal inhibition in [7] (IC50).
Take `COC(=O)CC[C@@H](C)[C@H]1CC[C@H]2[C@@H]3[C@H](OC(C)=O)C[C@@H]4CC5(CC[C@]4(C)[C@H]3C[C@H](OC(C)=O)[C@]12C)OOC(C)(C)OO5`: the result in [8] and in [9] was inactive. Besides, the values for the Survival in data set [10], in data set [11] and in data set [12] were 18 days, 16 days and 13 days, respectively. Further, the IC50 was determined as 26 nM in data set [5], 15 nM in [6] and 11.7 nM in data set [7]. Further, the IC90 in data set [5] turned out to be 57.3 nM; in [6] it was 26.7 nM; in data set [7], 20.7 nM.
Turning to `CCCNC(=O)CC[C@@H](C)[C@H]1CC[C@H]2[C@@H]3[C@H](OC(C)=O)C[C@@H]4CC5(CC[C@]4(C)[C@H]3C[C@H](OC(C)=O)[C@]12C)OOC(C)(C)OO5`, the half-life at 10 µM in data set [2] amounted to 24 min; in data set [3], 25 min. For the same compound, the IC50 in data set [6] is 7.4 nM; in data set [7], 18.1 nM. In addition, the IC90 in [6] worked out at 16.2 nM; in data set [7] it was 29.2 nM.
Consider `CC(=O)O[C@H]1C[C@H]2[C@@H]([C@H](OC(C)=O)C[C@@H]3CC4(CC[C@@]32C)OOC(C)(C)OO4)[C@@H]2CC[C@H]([C@H](C)CCC(=O)N(C)C)[C@@]12C`, for which the GI50 in [1] is 17000 nM. Also, in data set [1], the LC50 came to 75900 nM. In data set [1], this compound gave a TGI of 41700 nM. For the same compound, the half-life at 10 µM in data set [2] was found to be 49 min; in data set [3] it was 17 min. Moreover, the IC50 in data set [4] was 7.19 nM; in [5], 25.1 nM; in data set [6], 35.5 nM; in data set [7] it was 17.3 nM. Besides, the IC90 in [4] is 14 nM; in data set [5] it was 50.9 nM; in data set [6], 71.5 nM; in [7] it was 31.6 nM.
In [1], `CC(=O)O[C@H]1C[C@H]2[C@@H]([C@H](OC(C)=O)C[C@@H]3CC4(CC[C@@]32C)OOC(C)(C)OO4)[C@@H]2CC[C@H]([C@H](C)CCC(N)=O)[C@@]12C` came in with a GI50 of 8710 nM, an LC50 of 79400 nM and a TGI of 34700 nM. Besides, the half-life at 10 µM in [2] was more than 60 min. For the same compound, the half-life at 10 µM in data set [3] was more than 60 min. For the same compound, in data set [6], the IC50 amounted to 12.2 nM. In addition, the half-inhibitory concentration (IC50) in data set [7] came out at 9.4 nM.
As to `O[C@@H](c1cc(C(F)(F)F)nc2c(C(F)(F)F)cccc12)[C@H]1CCCCN1` [MEFLOQUINE], the Ratio in [14] was 1.71. In data set [4], this compound yielded an IC50 of 2.33 nM and an IC90 of 5 nM. In addition, the “fold-lower IC90/IC50 ratio vs mefloquine” value in data set [15] is 1.5.
As to `CC(=O)O[C@H]1C[C@H]2[C@@H]([C@H](OC(C)=O)C[C@@H]3CC4(CC[C@@]32C)OOC(C)(C)OO4)[C@@H]2CC[C@H]([C@H](C)CCC(=O)Nc3ccccc3)[C@@]12C`, the half-life at 10 µM in data set [2] is 19 min; in data set [3], 16 min. Besides, the figures for the Survival in data set [10], in [11] and in [12] were 23 days, 25 days and 23 days, respectively. The IC50 in data set [4] came to 1.89 nM; in data set [5] it was 15.8 nM; in data set [6] it was 6.97 nM; in [7], 5.02 nM. The IC90 in data set [4] is 4.45 nM; in data set [5], 20.9 nM; in data set [6] it was 20.8 nM; in data set [7], 14.3 nM. Further, the “fold-lower IC90/IC50 ratio vs mefloquine” value in data set [15] stood at 3.
As for `CC(=O)O[C@H]1C[C@H]2[C@@H]([C@H](OC(C)=O)C[C@@H]3CC4(CC[C@@]32C)OOC(C)(C)OO4)[C@@H]2CC[C@H]([C@H](C)CCC(=O)NN)[C@@]12C`, the IC50 in data set [4] was 7.03 nM; in data set [5], 28.5 nM; in data set [6], 28.1 nM; in data set [7], 16.4 nM. Moreover, the IC90 was 19.5 nM in [4], 38.1 nM in data set [5], 46.3 nM in data set [6] and 22.9 nM in data set [7].
With `CCN(CC)CCCC(C)Nc1ccnc2cc(Cl)ccc12` (stereo not drawn) [CHLOROQUINE], the IC90 in data set [4] was 397 nM; in [6], 17.6 nM.
For the compound `C[C@@H]1CC[C@H]2[C@@H](C)C(=O)O[C@@H]3O[C@@]4(C)CC[C@@H]1[C@]32OO4` [ARTEMISININ], the IC90 in data set [4] was 13 nM; in data set [5] it was 13 nM; in data set [6] it was 12.8 nM; in data set [7], 11.5 nM. Moreover, the IC50 in [6] came out at 9 nM; in [7] it was 6.7 nM.
